Assay results reported in PubChem BioAssay AID1918958 (Molecular Pharmacology Branch, DTP, NCI, 2023).
pIC50: −log10 of the molar value. Several values for one entry are separate records, joined by “and”; a condition that tells them apart may be missing. Equal values may be shown once. Each block holds one molecule with its values, some of them ahead of it.

Tested on: NCI-H196 complex spheroid viability
Experiment: Anticancer human tumor NCI-H196 cell line growth inhibition [LSD1];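 note: spheroids exposed to agents for 7 days before readout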;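 for viability, T/C: 100% = DMSO vehicle control viability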
Details: for viability, T/C: stronger effect = lower value
Text: Multicellular complex tumor spheroid response to LSD1 Inhibitor Iadademstat in combination with a variety of drugs and investigational agents in selected tumor cell lines
The current study was undertaken to assess response to LSD1 inhibitors in combination with standard-of-care drugs and investigational agents in solid tumor complex spheroid models as well as in the K-562 leukemia. Complex spheroids include a stromal component modeled by human endothelial cells (HUVEC) and fibroblasts modeled by human mesenchymal stem cells (MSCs). The concentration ranges selected for each drug and investigational agent were based upon clinically achievable concentrations if the clinical Cmax of the agent was known.
Compounds. The drugs and investigational agents used in this study are listed on Table 1. All of the agents used, including staurosporine (NSC755774) and gemcitabine (NSC613327), were obtained from the Developmental Therapeutics Program, NCI. FDA-approved anticancer drugs are available from the NCI at http://dtp.nci.nih.gov/branches/dscb/oncology_drugset_explanation.html. Drugs and investigational agents were >95% pure by proton nuclear magnetic resonance (NMR) and liquid chromatography/mass spectrometry (LC/MS). Stock solutions were prepared at 400x in DMSO, stored at -70 degrees C, and diluted in fresh medium prior to their use. The final concentration of DMSO in cell culture wells never exceeded 0.25% (v/v). The FDA-approved anticancer drug set is available from the Developmental Therapeutics Program at https://dtp.cancer.gov/organization/dscb/obtaining/available_plates.htm. All drugs and investigational agents were tested over a range starting from a high concentration at or near the clinical Cmax and decreasing in half-log increments. If the clinical Cmax for an agent had not been determined, the highest concentration tested was 10 microM.
Cell Lines. The patient-derived cancer cell (PDC) lines: 292921-168-R-J2-PDC, K24384-001-R-PDC, and 521955-158-R2-J5-PDC pancreatic carcinomas, 556581-035-R-J1 ovarian carcinoma, 324938-238-R-J1-PDC, 855422-203-R-J1-PDC and 883617-216-R-J1-PDC urothelial bladder carcinomas, 743489-274-T-PDC renal cell carcinoma, 138582-R-J1 Merkel cell tumor, K60290-347-R-J1 and K57222-313-R-J1-PDC glioblastomas, 653999-131-R-J2-PDC, LG0703-F948-PDC, and 349418-098-R-PDC non-small cell lung carcinomas, 885512-296-R-J2-PDC, 171881-019-R-J1-PDC breast carcinomas and 186277-243-T-J2-PDC and 233499-124-R-J2-PDC colon carcinomas were obtained from the NCI Patient-Derived Models Repository (PDMR, https://pdmr.cancer.gov). The established cell lines NCI/ADR-RES (RRID:CVCL_14520 and OVCAR-5 (RRID:CVCL_1628) ovarian carcinomas, 786-O (RRID:CVCL_1051) and A498 (RRID:CVCL_A498) renal cell carcinoma, NCI-H211 (ATCC, cat. CRL-5824; RRID:CVCL_1529), NCI-H196 (ATCC, cat. CRL-5823, RRID:CVCL_1509), SW 1271 (ATCC, cat. CRL-2177, RRID:CVCL_1716) and NCI-H1876 (ATCC, cat. CRL-5902, RRID:CVCL_1503) small cell lung carcinomas, MDA-MB-231 (RRID:CVCL_0062) and MDA-MB-468 (RRID:CVCL_0419)breast carcinomas (10-12). Pooled donor human umbilical vein endothelial cells (HUVEC, Lonza, cat. CC-2519) and human mesenchymal stem cells (hMSC, Lonza, cat. PT-2501) were purchased from Lonza (Walkersville, MD).
Cell Culture. All cells were maintained in an incubator at 37 degrees C and 5% CO2 with 95% humidity. The PDC lines were cultured according to standard operating procedures established by the NCI PDMR (https://pdmr.cancer.gov). Briefly all PDCs were thawed and cultured in Matrigel-coated flasks prepared with a working solution of 1X Ham's F-12 nutrient mix, without supplementation (Invitrogen, Waltham, MA, cat. 11765054), 100 U/mL penicillin-streptomycin (Invitrogen, cat. 15140122), and 2.5% Matrigel (Corning Inc., Corning, NY, cat. 354248) for the first three passages. […]

SMILES: COc1ccc([C@@H](O)c2cc(-c3ncnc4cc(N5CCOCC5)ccc34)c(F)cc2Cl)nn1
viability, T/C (compound 0.0316 µM): 97.9% and 93.4% | viability, T/C (compound 0.1 µM): 100% and 90.9% | viability, T/C (compound 0.316 µM): 90.4% and 84.7% | viability, T/C (compound 1 µM): 86.4% and 85.7% | viability, T/C (compound 3.16 µM): 83.8% and 73.6% | viability, T/C (compound 10 µM): 57.7% and 53.2% | pIC50 (curve of compound): < 5.00

SMILES: Cn1ncnc1C1c2n[nH]c(=O)c3cc(F)cc(c23)NC1c1ccc(F)cc1 (stereo not drawn)
viability, T/C (compound 0.000316 µM): 107% and 97.8% | viability, T/C (compound 0.001 µM): 104% and 106% | viability, T/C (compound 0.00316 µM): 99.1% and 105% | viability, T/C (compound 0.01 µM): 101% and 100% | viability, T/C (compound 0.0316 µM): 96.3% and 98.4% | viability, T/C (compound 0.1 µM): 96.8% and 95.6% | pIC50 (curve of compound): < 7.00

SMILES: NC1CCC(NC2CC2c2ccccc2)CC1 (stereo not drawn)
viability, T/C (compound 0.316 µM): 93.8% and 93% | viability, T/C (compound 1 µM): 96.9% [middle of 25 runs] | viability, T/C (compound 3.16 µM): 97.9% [middle of 25 runs] | viability, T/C (compound 10 µM): 97.5% [middle of 23 runs] | pIC50 (compound alone, run of 02/15/2022): < 5.00

SMILES: Nc1ccccc1NC(=O)c1ccc(CNC(=O)OCc2cccnc2)cc1
viability, T/C (compound 0.00949 µM): 81.1% and 83.5% | viability, T/C (compound 0.03 µM): 65.5% and 73% | viability, T/C (compound 0.0949 µM): 42.2% and 39% | viability, T/C (compound 0.3 µM): 13.3% and 8.4% | viability, T/C (compound 0.949 µM): 0.4% and 0.47% | viability, T/C (compound 3 µM): 1.02% and 0.51% | pIC50 (curve of compound): 7.20 and 7.18

SMILES: O=C(C=Cc1cccc(S(=O)(=O)Nc2ccccc2)c1)NO
viability, T/C (compound 0.00949 µM): 107% and 99.7% | viability, T/C (compound 0.03 µM): 103% and 104% | viability, T/C (compound 0.0949 µM): 70.1% and 56.7% | viability, T/C (compound 0.3 µM): 22.9% and 15% | viability, T/C (compound 0.949 µM): 0.4% | viability, T/C (compound 3 µM): 0.41% and 0.39% | pIC50 (curve of compound): 6.81 and 6.92

SMILES: O=C(C=Cn1cnc(-c2cc(C(F)(F)F)cc(C(F)(F)F)c2)n1)NNc1cnccn1
viability, T/C (compound 0.00316 µM): 28.4% and 33.1% | viability, T/C (compound 0.01 µM): 31% and 30.9% | viability, T/C (compound 0.0316 µM): 19.2% and 19.6% | viability, T/C (compound 0.1 µM): 17.7% and 14.5% | viability, T/C (compound 0.316 µM): 13.8% and 10.2% | viability, T/C (compound 1 µM): 7.27% and 6.31% | pIC50 (curve of compound): > 8.50

SMILES: O=C(c1cc(Cc2n[nH]c(=O)c3ccccc23)ccc1F)N1CCN(C(=O)C2CC2)CC1
viability, T/C (compound 0.0316 µM): 91.2% and 89.6% | viability, T/C (compound 0.1 µM): 93.7% and 93.2% | viability, T/C (compound 0.316 µM): 91.9% and 90% | viability, T/C (compound 1 µM): 94% and 84.9% | viability, T/C (compound 3.16 µM): 89.9% and 91.9% | viability, T/C (compound 10 µM): 95.3% and 95.9% | pIC50 (curve of compound): < 5.00

Continued, in another order:

pIC50 (compound alone, run of 02/21/2022): < 5.00
SMILES: NC1CC1c1ccc(-c2cccc(O)c2)cc1 (stereo not drawn)
viability, T/C (compound 0.316 µM): 95.9% [middle of 25 runs] | viability, T/C (compound 1 µM): 97.8% [middle of 25 runs]

pIC50 (curve of compound): < 5.52
SMILES: NS(=O)(=O)OCC1CC(n2ccc3c(NC4CCc5ccccc54)ncnc32)CC1O (stereo not drawn)
viability, T/C (compound 0.00949 µM): 109% and 80.7% | viability, T/C (compound 0.03 µM): 94.8% and 79.4% | viability, T/C (compound 0.0949 µM): 75.2% and 67.4% | viability, T/C (compound 0.3 µM): 83.8% and 77.4% | viability, T/C (compound 0.949 µM): 79.3% and 74.5% | viability, T/C (compound 3 µM): 67.7% and 66.8%

pIC50 (curve of compound): < 6.52
SMILES: Nc1ccn(C2OC(CO)C(O)C2(F)F)c(=O)n1 (stereo not drawn)
viability, T/C (compound 0.000949 µM): 98.3% and 103% | viability, T/C (compound 0.003 µM): 95.8% and 101% | viability, T/C (compound 0.00949 µM): 97.9% and 81.6% | viability, T/C (compound 0.03 µM): 66.4% and 65.5% | viability, T/C (compound 0.0949 µM): 68.4% and 66.2% | viability, T/C (compound 0.3 µM): 63.8%

pIC50 (curve of compound): < 6.00
SMILES: Nc1ncn(C2CC(O)C(CO)O2)c(=O)n1 (stereo not drawn)
viability, T/C (compound 0.00316 µM): 106% and 105% | viability, T/C (compound 0.01 µM): 92.3% and 102% | viability, T/C (compound 0.0316 µM): 95.5% and 99.8% | viability, T/C (compound 0.1 µM): 101% and 103% | viability, T/C (compound 0.316 µM): 100% and 102% | viability, T/C (compound 1 µM): 93.5% and 97.9%

pIC50 (curve of compound): < 6.52
SMILES: Nc1ncn(C2CC(O)C(CO)S2)c(=O)n1 (stereo not drawn)
viability, T/C (compound 0.000949 µM): 96.8% and 102% | viability, T/C (compound 0.003 µM): 105% and 111% | viability, T/C (compound 0.00949 µM): 103% and 106% | viability, T/C (compound 0.03 µM): 106% and 111% | viability, T/C (compound 0.0949 µM): 111% and 116% | viability, T/C (compound 0.3 µM): 100% and 104%
